Source: US20210263015A1, “MEASUREMENT METHOD” (priority 2018, published 2021)

How the values were obtained:
Assay type in all cases: cell-based
[1] = system: Cerebral cortex neurons derived from human iPS cells; experiment: Neural activity propagation in neural network of nerve cell device on MEA (4-AP)
From the text: FIG. 3 is a diagram showing the results of measuring by MEA (16 channels) the effect of 4-aminopyridines (4-AP) on the propagation speed of action potential in a neural network included in a nerve cell device. (A) is a raster plot diagram of the electrical signal measured by MEA after the addition of DMSO (upper figure) or 4-AP (lower figure). (B) is a diagram showing the results of measuring the time taken by the action potential in a neural network from the channel number 1 of the MEA to the channel number 16 (the channel at the diagonal of the MEA) after the addition of 4-AP (0.3, 1, and 3 μM) or DMSO and before the addition of the drug. The results are relative values in which the action potential arrival time in case of before the addition of the drug is taken as 100, and indicated by the average ±standard error (n=4). The decrease in the relative value of arrival time of action potential indicates an increase in the propagation speed of the action potential.
An oriented PS fiber sheet obtained by mounting a stainless steel circular frame produced in Example 1 was hydrophilized by plasma treatment using a desktop plasma treatment apparatus (STREX Inc.), and then coated with poly-D-lysine and laminin. […] The nerve action potential and the propagation direction of the neural activity were measured. […]

[2] = system: spinal motion neuron derived from human iPS cells
[3] = system: Nerve cells derived from human iPS cells (XCL-1 neuron); experiment: Neural activity propagation in neural network of nerve cell device on MEA (picrotoxin), XCL-1 neurons; details: picrotoxin 0.1-10 μm; XCL-1 neurons seeded at 3×10^5 or 9×10^5 cells/cm^2; relative to vehicle (DMSO)
Experimental: (§1) FIG. 4 is a diagram showing the results obtained by measuring the effect of picrotoxin by changing its concentration on the propagation speed of action potential in a neural network included in a nerve cell device having a different cell seeding density. As nerve cells, XCL-1 neurons (Xcell Science, US) were seeded at density of 3×10^5 cells/cm^2 (A) and 9×10^5 cells/cm^2 (B) or cerebral cortex neurons derived from human iPS cells (Axol Bioscience, UK) were seeded at density of 8x10^5 cells/cm^2 (C) and 24×10^5 cells/cm^2 (D) and cultured for 6 weeks. The concentrations of picrotoxin were 0.1, 0.3, 1, 3 and 10 μM. The results are relative values in which the propagation speed of action potential in case of the addition of vehicle (DMSO, a solvent in the drug) is taken as 100, and indicated by the average ±standard error (A, n=3; B, n=6; C, n=2; D, n=4).
(§2) An oriented PS fiber sheet obtained by mounting a stainless steel circular frame produced in Example 1 was hydrophilized by plasma treatment using a desktop plasma treatment apparatus (STREX Inc.), and then coated with poly-D-lysine and laminin. […] The nerve action potential was determined.

[4] = system: Cerebral cortex neurons derived from human iPS cells; experiment: Neural activity propagation in neural network of nerve cell device on MEA (picrotoxin), cerebral cortex neurons; details: picrotoxin 0.1-10 μm; cerebral cortex neurons seeded at 8×10^5 or 24×10^5 cells/cm^2; relative to vehicle (DMSO)
Experimental: as §1, §2

## Nc1ccncc1 [4-AP, 4-aminopyridin]
[1]; 4-AP 3 μM, channel 1 to channel 16 of MEA, DMSO 0.14 m/sec
  propagation speed of neural activity: 0.39 m/sec
[1]; 4-AP 0.3, 1 and 3 μM, n=4
  propagation speed of neural activity, concentration dependence (relative action potential arrival time): increase dependently with the concentration of 4-AP

## NC1=N[C@H](O)[C@H]2[C@H]3O[C@]4(O)O[C@@H]([C@@H](O)[C@@]2(N1)[C@@H]4O)[C@]3(O)CO [TTX, tetrodotoxin]
[2]
  peak time of action potential: delayed

## picrotoxin
[3]
  propagation speed of action potential, concentration dependence: an increase in propagation speed of a concentration-dependent action potential was observed
[4]
  propagation speed of action potential, concentration dependence: an increase in propagation speed of a concentration-dependent action potential was observed
